The values that follow come from publication PMC12263876, “DDX39B K63-linked ubiquitination mediated by TRIM28 promotes NSCLC metastasis by enhancing ECAD lysosomal degradation” (Signal Transduction and Targeted Therapy, 2025).

This assay deals with T1, DDX39B (Homo sapiens, UniProt Q13838).
T1 construct: His-DDX39B
The experiment in a line: SPR (KD […]); also BLI with biotinylated His-DDX39B (KD […]) and CETSA in NSCLC cells. The class given is binding.

T1 sequence (Q13838 2-428): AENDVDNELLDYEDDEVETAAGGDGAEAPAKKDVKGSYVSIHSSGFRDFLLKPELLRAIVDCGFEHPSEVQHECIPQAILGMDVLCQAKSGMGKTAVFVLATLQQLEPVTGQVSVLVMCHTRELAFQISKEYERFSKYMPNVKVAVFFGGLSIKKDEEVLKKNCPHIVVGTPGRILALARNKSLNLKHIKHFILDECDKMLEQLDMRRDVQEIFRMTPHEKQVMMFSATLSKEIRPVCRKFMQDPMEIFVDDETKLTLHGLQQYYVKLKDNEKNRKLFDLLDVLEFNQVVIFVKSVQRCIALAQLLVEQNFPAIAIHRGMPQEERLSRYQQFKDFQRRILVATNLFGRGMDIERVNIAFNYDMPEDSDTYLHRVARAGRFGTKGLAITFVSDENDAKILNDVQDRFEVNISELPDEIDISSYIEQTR

Regarding `C[C@H]1[C@H](OC(=O)CCC(=O)O)O[C@@H]2O[C@@]3(C)CC[C@H]4[C@H](C)CC[C@@H]1[C@@]24OO3` [artesunate], the Kd is 3.23 µM.
